BindingDB's records for doi:10.1021/jm049237m (Wyeth Research, 2004)

Target: Proto-oncogene tyrosine-protein kinase Src (Homo sapiens, UniProt P12931)
Experiment: Homogeneous Time-resolved Fluorescence (HTRF) Assay
Conditions: pH 7.5; 37 °C
Protocol: Kinase assays were performed using the europium/APC detection format (LANCE, Perkin Elmer). HTRF is based on the proximity of europium cryptate (donor fluorophore)-labeled antiphosphotyrosine and streptavidin labeled with APC(allophycocyanin), which have been brought together by a binding reaction. When the two entities come into close proximity and upon excitation, energy transfer occurs and APC re-emits at 665 nm.

Chain of Proto-oncogene tyrosine-protein kinase Src (P12931 2-536 limits assumed): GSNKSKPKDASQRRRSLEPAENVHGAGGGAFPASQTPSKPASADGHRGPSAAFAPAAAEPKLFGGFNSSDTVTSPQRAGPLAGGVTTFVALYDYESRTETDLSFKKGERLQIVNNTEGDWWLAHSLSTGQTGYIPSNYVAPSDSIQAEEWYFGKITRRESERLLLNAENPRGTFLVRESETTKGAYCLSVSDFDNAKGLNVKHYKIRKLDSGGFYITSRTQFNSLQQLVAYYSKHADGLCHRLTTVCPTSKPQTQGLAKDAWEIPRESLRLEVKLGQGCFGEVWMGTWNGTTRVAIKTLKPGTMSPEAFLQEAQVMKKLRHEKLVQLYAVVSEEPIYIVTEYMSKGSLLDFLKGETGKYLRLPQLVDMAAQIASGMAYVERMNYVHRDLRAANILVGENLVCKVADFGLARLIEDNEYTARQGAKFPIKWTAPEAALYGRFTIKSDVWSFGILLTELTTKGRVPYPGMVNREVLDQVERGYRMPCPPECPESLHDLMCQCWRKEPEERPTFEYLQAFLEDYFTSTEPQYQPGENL

Structure (SMILES): COc1cc(Nc2c(C#N)cnc3cc(-c4ccccc4CN4CCN(C)CC4)sc23)c(Cl)cc1Cl [7-[(2,4-dichloro-5-methoxyphenyl)amino]-2-{2-[(4-methylpiperazin-1-yl)methyl]phenyl}thieno[3,2-b]pyridine-6-carbonitrile]
- IC50: > 10 µM
